# Test results as given in patent publication US20050008684A1, “Method of treatment for acne, rosacea and ulcers with taurolidine and/or taurultam in a pharmaceutical composition” (priority 2003, published 2005).
# Key:
# [1] = system: impetiginous atopical eczema on the hands and feet; assay: case treatment of atopic eczema, topical; format: in vivo, human; details: same patient, before taurolidine treatment
# Description: The patient was released with a prescription to apply Triclosan in a Dermatop-base cream upon need. The pustules were treated with methylrosaniline chloride solution. […] Further treatments included application of Dermatop-cream, Polyvidon-Iodine solution, crystal violet solution, and Nystatin-suspension. […] Treatment was then continued for another week at reduced frequency application such as once daily.
# [2] = system: skin sensitization; assay: Magnusson & Kligman-Test; format: in vivo
# [3] = system: Staphylococcus aureus; details: cited from earlier work
# [4] = system: acne, inflamed lesions in the skin; assay: topical treatment of acne; format: in vivo, human
SMILES,condition under earlier therapy of atopical eczema [1],sensitization classification [2],minimal threshold of inhibitory concentration [3] [mg/mL],local irritations and/or allergies ([4]; 2% taurolidine gel or emulsion on skin of affected patient),"side effects such as flaking, stinging and itching ([4]; 2% taurolidine gel or emulsion, topical)","reduction of inflamed lesions in the skin ([4]; hydroxyethylcellulose gel (or W/O or O/W emulsion) with 2% taurolidine, several days after application) [%]"
COCC1=C(C(=O)O)N2C(=O)[C@@H](NC(=O)/C(=N\OC)c3csc(N)n3)[C@H]2SC1 [Cefpodoxim],improved somewhat,,,,,
C[C@]12C=CC(=O)C=C1CC[C@@H]1[C@@H]2[C@@H](O)C[C@@]2(C)[C@H]1CC[C@]2(O)C(=O)CO [Prednisolon],the atopical eczema was not completely gone,,,,,
"O=S1(=O)CCN(CN2CCS(=O)(=O)NC2)CN1 [taurolidine, 4,4′-methylenebis-(1,2,4-thiadiazine-1,1-dioxide)]",,non-sensitizing agent,0.3 to 0.6,no local irritations and/or allergies could be observed,No side effects,50
